We go through ten molecules from patent US11207312B2, “Metallo-beta-lactamase inhibitors and methods of use thereof” (priority 2017, dated 2021).

The target in series [1] is VIM-2 (Escherichia coli, UniProt Q5U7L7). As to the kind of experiment: biochemical. To be noted: CCF2-FA fluorescence assay; read-out: VIM2 IC50.
In series [2] the test system is P. aeruginosa MB9798 (efflux+, IMP-1 plasmid). Conditions: for MB9798 MITC95 P. aeruginosa uM Efflux WT: efflux + (MB9798) strain, imipenem at 2 μg/mL, in the presence of a class A, C, D serine β-lactamase inhibitor closely related to relebactam; for Efflux ratio: fold difference between efflux+ (MB9798) and efflux− (MB9799) strains. In a few lines: (§1)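 Isogenic P. aeruginosa PAO1 strains (efflux+ and multiple-efflux-pump-disrupted) carrying plasmid IMP-1, with inducible AmpC, tested by broth microdilution. Imipenem and/or ceftazidime fixed, usually at CLSI breakpoint, plus fixed class A/C β-lactamase inhibitor; titrated MBL inhibitor concentration restoring susceptibility recorded and compared between strains as efflux fold difference.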

The target in series [3] is NDM-1 (Klebsiella pneumoniae, UniProt C7C422). As to the kind of experiment: biochemical. In kind it is biochemical. Conditions: CCF2-FA fluorescence assay, 2 hours at 25° C. In a few lines:
(§2)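 In pH 7 phosphate buffer (100 mM) with 10 μM ZnSO4 and 0.005% Tween-20, CCF2-FA hydrolysis (1.25 μM) by 1 pM NDM-1, 2 pM IMP-1 or 30 pM VIM-1 was run 2 h at 25° C with inhibitor from 20 to 0.00063 μM. Ex 405/em 460 nm signal fitted to a 4-parameter curve for IC50.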

In series [4] the test system is Klebsiella pneumoniae expressing VIM-1 (IHMA599644). It counts as cell-based. To be noted: with imipenem 1 μg/ml; 95% inhibition of bacterial growth. Put shortly:
(§3)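 Clinical MBL-producing strains were grown overnight at 35 °C on blood agar, suspended in saline, diluted 1:100 into 1.1× CAMHB and exposed to test compound with imipenem at 1 μg/ml. After 22–24 h at 35 °C, absorbance gave MITC95: lowest compound concentration inhibiting 95% of growth.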

The test system of series [5] is Escherichia coli expressing NDM-1 (CLB30016). In kind it is cell-based. To be noted: with imipenem 1 μg/ml; 95% inhibition of bacterial growth. In a few lines:
as §3

Series [6] relates to Serratia marcescens expressing IMP-1 (CL5741). It counts as cell-based. To be noted: with imipenem 1 μg/ml; 95% inhibition of bacterial growth. In a few lines: as §3
Series [7] has as its system P. aeruginosa MB9799 (efflux-, IMP-1 plasmid). It counts as cell-based, Pseudomonas aeruginosa. To be noted: efflux − (MB9799) strain; imipenem at 2 μg/mL; in the presence of a class A, C, D serine β-lactamase inhibitor closely related to relebactam. In a few lines:
as §1

The target of series [8] is VIM-1 (Pseudomonas aeruginosa (strain ATCC 15692 / DSM 22644 / CIP 104116 / JCM 14847 / LMG 12228 / 1C / PRS 101 / PAO1), UniProt A0A0F7KYQ8). Nature of the series: biochemical. To be noted: CCF2-FA fluorescence assay, 2 hours at 25° C.; read-out: VIM1 IC50. Put shortly: as §2
In series [9] the target is IMP-1 (Serratia marcescens, UniProt P52699). Nature of the series: biochemical. To be noted: CCF2-FA fluorescence assay, 2 hours at 25° C.; read-out: IMP1 IC50. Put shortly: as §2
Sequence of IMP-1 (P52699 whole entry, looked up, species assumed): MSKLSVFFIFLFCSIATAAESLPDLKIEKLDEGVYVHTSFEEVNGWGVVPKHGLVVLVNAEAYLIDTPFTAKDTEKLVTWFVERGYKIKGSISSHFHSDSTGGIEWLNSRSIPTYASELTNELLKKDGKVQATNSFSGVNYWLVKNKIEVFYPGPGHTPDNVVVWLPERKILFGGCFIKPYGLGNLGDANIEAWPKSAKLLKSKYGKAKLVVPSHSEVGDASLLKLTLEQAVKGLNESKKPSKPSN

Sequence of NDM-1 (C7C422 whole entry, looked up, species assumed): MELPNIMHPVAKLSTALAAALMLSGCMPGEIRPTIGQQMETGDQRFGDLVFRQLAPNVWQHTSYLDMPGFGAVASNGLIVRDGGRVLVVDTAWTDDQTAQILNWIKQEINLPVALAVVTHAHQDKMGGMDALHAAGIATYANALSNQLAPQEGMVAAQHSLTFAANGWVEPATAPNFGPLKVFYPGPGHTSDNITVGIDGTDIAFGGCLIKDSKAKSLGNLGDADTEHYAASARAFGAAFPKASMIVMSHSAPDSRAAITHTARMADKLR

Take `NC[C@@H](O)CNS(=O)(=O)c1ccc(N2CC[C@H](CN)[C@@H](F)C2)c(-c2nn[nH]n2)c1S(N)(=O)=O` (stereo in doubt) [Example 13, N^1—((R)-3-amino-2-hydroxypropyl)-4-(trans-4-(aminomethyl)-3-fluoropiperidin-1-yl)-3-(2H-tetrazol-5-yl)benzene-1,2-disulfonamide]: the IC50 was found to be 4.12 nM in series [1], 3.01 nM in [3], 0.14 nM in [8] and 3.7 nM in series [9]. Also, the “MB9798 MITC95 P. aeruginosa uM Efflux WT” value in [2] was 0.78 µM. For the same molecule, the Efflux ratio in [2] is 2.00. Moreover, the “IHMA599644 K. pneumoniae MITC95 VIM” value in series [4] came to 0.78 µM. For the same molecule, the “CLB30016 E. coli MITC95 NDM” value in [5] is 1.56 µM. For the same molecule, the “CL5741 S. marcescens MITC95 IMP” value in [6] was found to be 0.78 µM. In addition, the “MB9799 MITC95 P. aeruginosa uM Efflux Mutant” value in series [7] worked out at 0.39 µM.
On to `NCCNS(=O)(=O)c1ccc(N2CCN(CCO)CC2)c(-c2nnn[nH]2)c1S(N)(=O)=O` [Example 48, N1-(2-aminoethyl)-4-(4-(2-hydroxyethyl)piper-azin-1-yl)-3-(1H-tetrazol-5-yl)benzene-1,2-disulfonamide], for which the IC50 is 15 nM in [1], 1.52 nM in series [3], 7.23 nM in series [8] and 5.59 nM in series [9]. Also, the “MB9798 MITC95 P. aeruginosa uM Efflux WT” value in series [2] stood at 1.56 µM. The Efflux ratio in series [2] is 4.00. For the same molecule, in series [4], the “IHMA599644 K. pneumoniae MITC95 VIM” value was 0.39 µM. Moreover, the “CLB30016 E. coli MITC95 NDM” value in [5] was determined as 0.05 µM. Further, the “CL5741 S. marcescens MITC95 IMP” value in series [6] came out at 0.05 µM. Also, the “MB9799 MITC95 P. aeruginosa uM Efflux Mutant” value in [7] is 0.39 µM.
`NCCOCC1CCN(c2ccc(S(=O)(=O)NC[C@H](O)CN)c(S(N)(=O)=O)c2-c2nn[nH]n2)CC1` [Example 208]: the IC50 in series [1] was 1.19 nM; in [3] it was 1.05 nM; in series [8] it was 0.11 nM; in series [9], 1.84 nM. In series [2], the “MB9798 MITC95 P. aeruginosa uM Efflux WT” value is 0.78 µM. In addition, the Efflux ratio in series [2] was determined as 1.00. In addition, the “IHMA599644 K. pneumoniae MITC95 VIM” value in series [4] amounted to 3.13 µM. The “CLB30016 E. coli MITC95 NDM” value in series [5] worked out at 1.56 µM. The “CL5741 S. marcescens MITC95 IMP” value in series [6] was 0.78 µM. In series [7], the “MB9799 MITC95 P. aeruginosa uM Efflux Mutant” value was 0.78 µM.
For the molecule `NS(=O)(=O)c1c(S(=O)(=O)N[C@@H]2CCNC2)ccc(N2CCCCC(O)C2)c1-c1nnn[nH]1` (stereo partly drawn) [Example 104, 4-(3-hydroxyazepan-1-yl)-N1-[(3R)-pyrrolidin-3-yl]-3-(1H-tetrazol-5-yl)benzene-1,2-disulfonamide], the IC50 in series [1] came to 0.65 nM; in [3], 0.68 nM; in series [8] it was 0.21 nM; in series [9] it was 2.06 nM. For the same molecule, the “MB9798 MITC95 P. aeruginosa uM Efflux WT” value in series [2] came to 3.13 µM. Also, in series [2], the Efflux ratio came to 2.00. Besides, the “IHMA599644 K. pneumoniae MITC95 VIM” value in [4] came to 3.13 µM. For the same molecule, the “CLB30016 E. coli MITC95 NDM” value in [5] came out at 3.13 µM. The “CL5741 S. marcescens MITC95 IMP” value in [6] turned out to be 3.13 µM. In [7], the “MB9799 MITC95 P. aeruginosa uM Efflux Mutant” value worked out at 1.56 µM.
Regarding `NS(=O)(=O)c1c(S(=O)(=O)N[C@@H]2CCNC2)ccc(N2CCC3(CC2)CNC3)c1-c1nnn[nH]1` [Example 52, (R)-N1-(pyrrolidin-3-yl)-4-(2,7-diazaspiro[3.5]no-nan-7-yl)-3-(1H-tetrazol-5-yl)benzene-1,2-disulfonamide], the IC50 amounted to 8.18 nM in [1], 0.48 nM in series [3], 0.5 nM in series [8] and 3.06 nM in series [9]. In addition, in series [2], the “MB9798 MITC95 P. aeruginosa uM Efflux WT” value is 0.78 µM. Also, the Efflux ratio in [2] was found to be 1.00. For the same molecule, in series [4], the “IHMA599644 K. pneumoniae MITC95 VIM” value worked out at 1.56 µM. For the same molecule, the “CLB30016 E. coli MITC95 NDM” value in series [5] worked out at 0.78 µM. For the same molecule, the “CL5741 S. marcescens MITC95 IMP” value in series [6] is 1.56 µM. Also, the “MB9799 MITC95 P. aeruginosa uM Efflux Mutant” value in series [7] came to 0.78 µM.
Consider `NC1CCN(c2ccc(S(=O)(=O)N[C@@H]3CCNC3)c(S(N)(=O)=O)c2-c2nnn[nH]2)CC1` [Example 73, 4-(4-aminopiperidin-1-yl)-N1-[(3R)-pyrrolidin-3-yl]-3-(1H-tetrazol-5-yl)benzene-1,2-disulfonamide], for which the IC50 in [1] amounted to 16.1 nM; in series [3] it was 9.84 nM; in series [8], 0.31 nM; in series [9] it was 16.6 nM. The “MB9798 MITC95 P. aeruginosa uM Efflux WT” value in [2] was 1.56 µM. In addition, the Efflux ratio in [2] stood at 2.00. In series [4], the “IHMA599644 K. pneumoniae MITC95 VIM” value is 1.56 µM. Moreover, the “CLB30016 E. coli MITC95 NDM” value in series [5] was 0.78 µM. Moreover, in series [6], the “CL5741 S. marcescens MITC95 IMP” value was 1.56 µM. Besides, the “MB9799 MITC95 P. aeruginosa uM Efflux Mutant” value in [7] turned out to be 0.78 µM.
Regarding `NS(=O)(=O)c1c(S(=O)(=O)N[C@@H]2CCNC2)ccc(N2CCC(CO)CC2=O)c1-c1nn[nH]n1` (stereo partly drawn) [Example 157, 4-(4-(hydroxymethyl)-2-oxopiperidin-1-yl)-N1-((R)-pyrrolidin-3-yl)-3-(2H-tetrazol-5-yl)benzene-1,2-disulfonamide], the IC50 in series [1] was 1.85 nM; in series [3], 0.24 nM; in series [8], 0.25 nM; in series [9], 6.9 nM. Further, the “MB9798 MITC95 P. aeruginosa uM Efflux WT” value in [2] was determined as 3.13 µM. In addition, in series [2], the Efflux ratio turned out to be 1.00. Also, the “IHMA599644 K. pneumoniae MITC95 VIM” value in [4] stood at 6.25 µM. In addition, the “CLB30016 E. coli MITC95 NDM” value in series [5] was 1.56 µM. Further, in series [6], the “CL5741 S. marcescens MITC95 IMP” value was determined as 3.13 µM. In series [7], the “MB9799 MITC95 P. aeruginosa uM Efflux Mutant” value is 3.13 µM.
Turning to `NCC1CCN(c2ccc(S(=O)(=O)N[C@@H]3CCNC3)c(S(N)(=O)=O)c2-c2nn[nH]n2)C(=O)C1` (stereo partly shown) [Example 149], the IC50 in [1] was 48.1 nM; in [3], 4.46 nM; in series [8], 0.96 nM; in [9], 104 nM. In series [2], the “MB9798 MITC95 P. aeruginosa uM Efflux WT” value was found to be 6.25 µM. Also, the Efflux ratio in series [2] came out at 2.00. Moreover, the “IHMA599644 K. pneumoniae MITC95 VIM” value in [4] worked out at 1.56 µM. In addition, the “CLB30016 E. coli MITC95 NDM” value in series [5] worked out at 0.20 µM. In [6], the “CL5741 S. marcescens MITC95 IMP” value stood at 1.56 µM. Besides, the “MB9799 MITC95 P. aeruginosa uM Efflux Mutant” value in series [7] amounted to 3.13 µM.
With `NC[C@@H](O)CNS(=O)(=O)c1ccc(N2CC[C@@H](N)C2)c(-c2nn[nH]n2)c1S(N)(=O)=O` [Example 125, N1-((R)-3-amino-2-hydroxypropyl)-4-((R)-3-aminopyrrolidin-1-yl)-3-(2H-tetrazol-5-yl)benzene-1,2-disulfonamide], the IC50 amounted to 53.9 nM in [1], 88.1 nM in [3], 10.9 nM in series [8] and 61.4 nM in [9]. Besides, the “MB9798 MITC95 P. aeruginosa uM Efflux WT” value in [2] came out at 6.25 µM. In addition, the Efflux ratio in [2] is listed as 2.00. In addition, in series [4], the “IHMA599644 K. pneumoniae MITC95 VIM” value was 1.56 µM. Besides, in series [5], the “CLB30016 E. coli MITC95 NDM” value stood at 0.78 µM. Further, the “CL5741 S. marcescens MITC95 IMP” value in series [6] came to 3.13 µM. For the same molecule, the “MB9799 MITC95 P. aeruginosa uM Efflux Mutant” value in series [7] amounted to 3.13 µM.
Turning to `NC[C@@H](O)CNS(=O)(=O)c1ccc(NC2CCC(N)C2)c(-c2nn[nH]n2)c1S(N)(=O)=O` (stereo partly drawn) [compound 184, N1-((R)-3-amino-2-hydroxypropyl)-4-((3-aminocyclopentyl)amino)-3-(2H-tetrazol-5-yl)benzene-1,2-disulfonamide], the IC50 in [1] was determined as 44.4 nM; in series [3], 19.4 nM; in series [8], 4.61 nM; in series [9] it was 39.4 nM. The “MB9798 MITC95 P. aeruginosa uM Efflux WT” value in series [2] was 6.25 µM. For the same molecule, the Efflux ratio in [2] is reported as 2.00. Further, in [4], the “IHMA599644 K. pneumoniae MITC95 VIM” value is 1.56 µM. Besides, the “CLB30016 E. coli MITC95 NDM” value in series [5] stood at 0.78 µM. The “CL5741 S. marcescens MITC95 IMP” value in series [6] stood at 1.56 µM. Also, the “MB9799 MITC95 P. aeruginosa uM Efflux Mutant” value in series [7] is 3.13 µM.

A word on the IC50: it is the concentration that gives 50% inhibition.
